Experimental data as given in US20250059267A1, “COMBINATION THERAPY FOR TREATMENT OF TUMORS COMPRISING CANCER-ASSOCIATED FIBROBLASTS” (PHENOMIC AI, priority 2021, published 2025).

Key:
Assay type in all cases: cell-based, human
[1] = system: fibroblasts grown in the presence of either HCT 116 cells or HT-29 cells; test: TGF-β pathway inhibitors in fibroblast-cancer cell co-cultures (CAF activation); conditions: for block of CAF activation in coculture (FIG. 2B): BJ fibroblasts with HT-29 cells, TGF-β 1 ng/ml; for activity on CAF phenotypes in co-culture: identical doses to those used in the previous test
Method: (§1) FIG. 2 TGF-β inhibitors perform poorly in co-culture compared to mono-culture. (A) Normal BJ fibroblasts were cultured in either minimal media or alongside HT-29 CRC cancer cells. 6-different TGF-β inhibitors were added alongside TGF-β [1 ng/ml]ligand. […] (B) This is most apparent comparing the effects of three TGF-β inhibitors with varying selectivity.
(§2) In brief, monocultures of BJ or CCD18-Co fibroblasts were stimulated with TGF-β for 48 hours in the presence of serial dilutions of each TGF-β inhibitor and fibroblast activation was assessed by immunofluorescence using αSMA and CD248. The probability of fibroblast activation was assessed by a machine learning model, Multiple Instance Learning (MIL) trained on unstimulated fibroblasts (no drug, no TGF-β) as a negative control, and TGF-β stimulated fibroblasts (with vehicle control) as positive control. For co-culture comparisons, the same fibroblasts were grown in the presence of either HCT 116 cells or HT-29 cells and treated with the same serial dilutions of small molecule TGF-β. For these co-cultures, the addition of exogenous TGF-β is not required as the cancer cells secrete sufficient TGF-β for maximal fibroblast activation. […] This observation was confirmed by CellProfiler analysis where individual fibroblasts were segmented and αSMA and stress-fiber intensity was quantified (FIG. 2A).
We took an mAb inhibitor of TGFBR2, LY3022859, and assessed the performance of this inhibitor in co-culture alongside SIS3 and […], (FIG. 2 B). […] In contrast, both LY364947 and SIS3 were active at identical doses to those used in the previous test. Again, exogenous TGF-β was dispensable for this effect.

[2] = system: BJ or CCD18-Co fibroblasts; test: TGF-β pathway inhibitors in TGF-β stimulated fibroblast monocultures (αSMA/CD248 immunofluorescence, MIL model); conditions: 48 hours
Method: as §1
We then tested the relative potency of a panel of TGF-β pathway inhibitors in monoculture fibroblasts stimulated with TGF-β compared to co-culture with CRC cells that produce their own, similar levels of TGF-β.
as §2, with “control.” for “control. For co-culture comparisons, the same fibroblasts were grown in the presence of either HCT 116 cells or HT-29 cells and treated with the same serial dilutions of small molecule TGF-β. For these co-cultures, the addition of exogenous TGF-β is not required as the cancer cells secrete sufficient TGF-β for maximal fibroblast activation.”

[3] = system: fibroblasts (BJ, CCD18-Co); test: Activin A, Activin B and TGF-β dose response for CAF induction in unstimulated fibroblasts; conditions: for IC50 values, 1 hr vs. 48 hr timepoints: BJ or CCD18-Co fibroblast mono-cultures in minimal media (N=2); for phenotypic changes in fibroblasts (SMAD2/3, phospho-CREB, ASMA, Endosialin): BJ-fibroblasts; for EC50 values (fibroblast induction into a CAF like state, composite machine learning score): depending on condition tested, BJ, CCD18-Co, 1 hr and 48 hr; for ASMA score (intensity and number of ASMA filaments) vs. TGF-β treatment: highest dose, 48 hours
Method: FIG. 3 Activin and TGF-β both induce a CAF phenotype in fibroblast cell-lines. […] B) Quantification of ASMA levels and plate coverage further reinforce these changes downstream of addition of both Activin and TGF-β. C) TGF-β and Activin A were added over a range of doses to BJ or CCD18-Co colon fibroblasts grown as mono-cultures in minimal media (N=2). Cells were stained for Actin, Endosialin/CD248, DAPI/Nuclei, and αSMA. Machine Learning (Multiple Instance Learning) models were trained on the highest and lowest doses to generate dose-response curves.
To test whether Activin signaling could induce CAF activation similarly to TGF-β we added serial dilutions (3-fold) of recombinant Activin A ([…] max concentration) and Activin B ([…] max concentration) to unstimulated fibroblasts (BJ, CCD18-Co) to generate dose response curves for Activin A and B. A serial 3-fold dilution of TGF-β was also tested as a positive control ([…] max concentration). A number of high-content markers of CAF activation we used as endpoints. Namely, cells were probed for SMAD2/3 translocation to the nucleus and phospoCREB levels at 1 hr, as a marker of direct ACVR/TGFBR stimulation. ASMA and Endosialin levels were then probed at 48 hrs to quantify CAF induction levels following Activin and TGF-β stimulation. At the highest dose, at 1 hr we saw SMAD 2/3 nuclear translocation alongside phospho-CREB up-regulation, indicating receptor engagement and activity in both Activin and TGF-β treated conditions (FIG. 3A).

[4] = system: CCD-18Co normal colon fibroblasts; test: Cytokine stimulation of fibroblast monocultures, CAF marker immunofluorescence; conditions: fibroblast monoculture serum-starved 24 hours, stimulated 48 hours, vs untreated fibroblasts
Method: A panel of 5 CAF markers were then used to stain the cultures and the expression levels of expression of the markers calculated from individual segmented fibroblasts.
First, we treated normal human fibroblasts with a panel of cytokines to induce activation, and then assessed CAF marker expression by immunofluorescence. Fibroblast monocultures were serum-starved for 24 hours then stimulated with TGF-β, TNF alpha, PDGFbb, acidic FGF or other cytokines for 48 hours. Cells were then fixed, permeabilized and stained with a panel of immunofluorescent CAF markers and imaged by high-content microscopy.

Compound	block of CAF activation in coculture (FIG. 2B) [1]	activity on CAF phenotypes in co-culture [1]	IC50 values, 1 hr vs. 48 hr timepoints [3]	phenotypic changes in fibroblasts (SMAD2/3, phospho-CREB, ASMA, Endosialin) [3]	EC50 values (fibroblast induction into a CAF like state, composite machine learning score) [3] [mg/L]	ASMA score (intensity and number of ASMA filaments) vs. TGF-β treatment [3]	also measured
c1ccc(-c2[nH]ncc2-c2ccnc3ccccc23)nc1 [LY364947]	blocks CAF activation at high doses	active					
Cc1cccc(-c2nn3c(c2-c2ccnc4ccc(C(N)=O)cc24)CCC3)n1 [LY2157299]							effectiveness in monoculture (inhibition of αSMA) [2]: effective; inhibition of αSMA in co-culture ([1]; even up to 100 μM): very little inhibition
COc1cc2c(cc1OC)CN(C(=O)/C=C/c1c(-c3ccccc3)n(C)c3ncccc13)CC2 [SIS3]	able to block CAF activation	active					response in co-culture among the inhibitors tested (rightward shift of IC50) [1]: best response; reduction of αSMA levels in coculture ([1]; % of the control, conditions with >5% cell death excluded): more than 50%
Activin A: recombinant Activin A			lower at the 48 hr timepoint in CCD18 colon fibroblasts	induce similar phenotypic changes	10 to 30	no difference	
Activin B: recombinant Activin B				induce similar phenotypic changes	4 to 9	no difference	
TGF-β: TGF-β ligand added as cytokine stimulus and positive control			lower for 1 hr timepoints vs. 48 hr timepoints	induce similar phenotypic changes			expression of alpha-smooth muscle actin (αSMA), podoplanin (PDPN) and CD248 [4]: increased expression
